Results on 15 compounds are retold here after patent US20230043863A1, “HETEROAROMATIC DERIVATIVES FOR USE AS REGULATOR, PREPARATION METHOD THEREFOR AND USE THEREOF” (JIANGSU HANSOH PHARMACEUTICAL GROUP CO., LTD., priority 2018, published 2023).

One assay concerns the target T1, JAK3 (Homo sapiens, UniProt P52333).
T1 sequence (P52333 1-1124): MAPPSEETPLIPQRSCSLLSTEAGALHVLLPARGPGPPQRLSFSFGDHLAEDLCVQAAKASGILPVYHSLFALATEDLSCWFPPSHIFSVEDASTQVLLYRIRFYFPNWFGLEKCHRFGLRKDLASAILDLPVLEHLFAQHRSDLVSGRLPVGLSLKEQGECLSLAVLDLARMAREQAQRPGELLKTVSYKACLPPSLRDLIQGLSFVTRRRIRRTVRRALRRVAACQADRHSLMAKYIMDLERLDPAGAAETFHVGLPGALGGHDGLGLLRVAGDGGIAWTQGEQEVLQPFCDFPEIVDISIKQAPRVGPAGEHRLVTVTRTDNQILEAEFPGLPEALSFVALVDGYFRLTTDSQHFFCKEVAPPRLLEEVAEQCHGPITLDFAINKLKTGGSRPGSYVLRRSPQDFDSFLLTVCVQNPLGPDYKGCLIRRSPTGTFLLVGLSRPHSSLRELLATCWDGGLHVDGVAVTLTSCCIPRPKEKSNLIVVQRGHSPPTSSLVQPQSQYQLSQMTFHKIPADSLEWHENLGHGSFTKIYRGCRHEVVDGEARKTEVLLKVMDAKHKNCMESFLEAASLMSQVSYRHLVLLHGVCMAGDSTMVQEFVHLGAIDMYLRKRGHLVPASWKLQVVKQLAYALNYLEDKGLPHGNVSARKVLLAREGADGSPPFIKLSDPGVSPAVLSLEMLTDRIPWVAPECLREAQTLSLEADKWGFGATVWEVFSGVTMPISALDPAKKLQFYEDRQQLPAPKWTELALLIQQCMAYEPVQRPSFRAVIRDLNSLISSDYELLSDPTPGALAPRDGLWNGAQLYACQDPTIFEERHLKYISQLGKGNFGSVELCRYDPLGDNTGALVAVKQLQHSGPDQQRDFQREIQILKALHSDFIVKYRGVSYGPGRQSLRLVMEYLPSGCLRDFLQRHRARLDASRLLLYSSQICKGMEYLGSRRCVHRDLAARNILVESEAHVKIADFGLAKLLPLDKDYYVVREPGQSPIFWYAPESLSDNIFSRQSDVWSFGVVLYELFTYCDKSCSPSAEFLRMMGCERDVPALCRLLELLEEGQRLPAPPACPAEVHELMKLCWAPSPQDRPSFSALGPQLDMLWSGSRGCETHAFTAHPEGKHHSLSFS
As to the kind of experiment: JAK kinase activity inhibition, TR-FRET (JAK3). It counts as biochemical. Conditions: TR-FRET kinase assay. An outline of the steps:
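Recombinant kinase at 0.1-20 nM, peptide substrate, ATP; room temperature, 0.5-5 h; EDTA stop, labeled-antibody TR-FRET readout; IC50 by curve fit.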

Assay [1] has as its system JAK-STAT signal pathway of U266 cells. As to the kind of experiment: Inhibition of cellular JAK-STAT signal pathway (STAT3 phosphorylation) in U266 cells. The following applies: Homo sapiens, U-266, INF-a 1000 U/mL stimulation. The format is cell-based, human. Summed up:
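U266 cells (100-300 K/well) preincubated 2 h at room temperature with serially diluted compound, then stimulated 15 min with IFN-α at 1000 U/mL final. After lysis, STAT3 phosphorylation read by LANCE Ultra TR-FRET (Eu antibody 0.5 nM, ULight antibody 5 nM, overnight) at 665 nm; IC50 from 4-parameter fit of inhibition versus DMSO and negative controls.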

SMILES strings stand for the structures.

Take `Cc1cc(Nc2nc(N[C@@H]3C[C@H]4CC[C@@H](C3)N4CCC#N)nc3cc(Cl)ccc23)n[nH]1` [Embodiment 171, 3-((3-exo)-3-((7-chloro-4-((5-methyl-1H-pyrazol-3-yl)amino)quinazolin-2-yl)amino)-8-azabicyclo[3.2.1]oct-8-yl)propionitrile]: the values for the IC50 (on JAK3; in assay [1]) were 23.3 nM and 0.85 nM, respectively.
Turning to `Cc1cc(Nc2nc(N[C@@H]3C[C@H]4CC[C@@H](C3)N4CCC#N)nc3ccsc23)n[nH]1` [Embodiment 60, 3-((3-exo)-3-((4-((5-methyl-1H-pyrazol-3-yl)amino)thieno[3,2-d]pyrimidin-2-yl)amino)-8-azabicyclo[3.2.1]oct-8-yl)propionitrile], inhibition in assay [1] was half-maximal at 2.9 nM (IC50).
Consider `Cc1cc(Nc2nc(N[C@@H]3C[C@H]4CC[C@@H](C3)N4CCC#N)nc3sc(C)cc23)n[nH]1` [Embodiment 277, 3-((3-exo)-3-((6-methyl-4-((5-methyl-1H-pyrazol-3-yl)amino)thieno[2,3-d]pyrimidin-2-yl)amino)-8-azabicyclo[3.2.1]oct-8-yl)propionitrile], for which the results for the IC50 (on JAK3; in assay [1]) were 8.26 nM and 0.49 nM, respectively.
The like results for `Cc1cc(Nc2nc(N(C)[C@@H]3C[C@H]4CCC[C@@H](C3)N4C(=O)CN3CCN(C)CC3)nc3sccc23)n[nH]1` [Embodiment 257, 1-((3-exo)-3-(methyl(4-((5-methyl-1H-pyrazol-3-yl)amino)thieno[2,3-d]pyrimidin-2-yl)amino)-9-azabicyclo[3.3.1]non-9-yl)-2-(4-methylpiperazin-1-yl)ethane-1-one] were, in that order, 19.9 nM and 1.45 nM.
For the compound `Cc1cc(Nc2nc(N[C@@H]3C[C@H]4CCC[C@@H](C3)N4C(=O)CN3CCOCC3)nc3sccc23)n[nH]1` [Embodiment 246, 1-((3-exo)-3-((4-((5-methyl-1H-pyrazol-3-yl)amino)thieno[2,3-d]pyrimidin-2-yl)amino)-9-azabicyclo[3.3.1]non-9-yl)-2-morpholinoethane-1-one], the IC50 was 6.87 nM at JAK3 and 1 nM in assay [1].
As for `Cc1cc(Nc2nc(N[C@@H]3C[C@H]4CCC[C@@H](C3)N4C(=O)c3ccccn3)nc3sccc23)n[nH]1` [Embodiment 260, ((3-exo)-3-((4-((5-methyl-1H-pyrazol-3-yl)amino)thieno[2,3-d]pyrimidin-2-yl)amino)-9-azabicyclo[3.3.1]non-9-yl)(pyridin-2-yl)methanone], the IC50 came out at 3.83 nM at JAK3 and 1.1 nM in assay [1].
The like results for `Cc1cc(Nc2nc(N[C@@H]3C[C@H]4CC[C@@H](C3)N4S(=O)(=O)N3CC(C#N)C3)nc3sccc23)n[nH]1` [Embodiment 237, 1-(((3-exo)-3-((4-((5-methyl-1H-pyrazol-3-yl)amino)thieno[2,3-d]pyrimidin-2-yl)amino)-8-azabicyclo[3.2.1]oct-8-yl)sulfonyl)azetindin-3-formonitrile] were, in that order, 3.62 nM and 0.56 nM.
Take `CNCC(=O)N1[C@@H]2CCC[C@H]1C[C@H](Nc1nc(Nc3cc(C)[nH]n3)c3ccsc3n1)C2` [Embodiment 247, 1-((3-exo)-3-((4-((5-methyl-1H-pyrazol-3-yl)amino)thieno[2,3-d]pyrimidin-2-yl)amino)-9-azabicyclo[3.3.1]non-9-yl)-2-(methylamino)-ethane-1-one]: the IC50 turned out to be 2.4 nM at JAK3 and 2.27 nM in assay [1].
The matching figures for `Cc1cc(Nc2nc(N[C@@H]3C[C@H]4CC[C@@H](C3)N4S(=O)(=O)N3CC(C#N)C3)nc3cc(Cl)ccc23)n[nH]1` [Embodiment 214]: 133 nM and 17.7 nM.
The like results for `Cc1cc(Nc2nc(N[C@@H]3C[C@H]4CC[C@@H](C3)N4S(=O)(=O)N3CC(C#N)C3)nc3ccccc23)n[nH]1` [Embodiment 213, 1-(((3-exo)-3-((4-((5-methyl-1H-pyrazol-3-yl)amino)quinazolin-2-yl)amino)-8-azabicyclo[3.2.1]oct-8-yl)sulfonyl)azetindin-3-formonitrile] were, in that order, 12.6 nM and 11.1 nM.
Turning to `Cc1cnc(Nc2cc3ncccc3c(N[C@@H]3C[C@H]4CC[C@@H](C3)N4CCC#N)n2)s1` [Embodiment 1, 3-((3-exo)-3-((7-((5-methylthioazol-2-yl)amino)-1,6-diazanaphthalen-5-yl)amino)-8-azabicyclo[3.2.1]oct-8-yl)propionitrile], the figures for the IC50 (at JAK3; in assay [1]) were 2.68 nM and 0.15 nM, respectively.
In the case of `Cc1cc(Nc2nc(N[C@@H]3C[C@H]4CCC[C@@H](C3)N4CCC#N)nc3scnc23)n[nH]1` [Embodiment 278, 3-((3-exo)-3-((7-((5-methyl-1H-pyrazol-3-yl)amino)thiazolo[5,4-d]pyrimidin-5-yl)amino)-9-azabicyclo[3.3.1]non-9-yl)propionitrile], the figures for the IC50 (at JAK3; in assay [1]) were 7.05 nM and 0.29 nM, respectively.
As for `Cc1cc(Nc2nc(N[C@@H]3C[C@H]4CC[C@@H](C3)N4CCC#N)nc3cc(Br)ccc23)n[nH]1` [Embodiment 170, 3-((3-exo)-3-((7-bromine-4-((5-methyl-1H-pyrazol-3-yl)amino)quinazolin-2-yl)amino)-8-azabicyclo[3.2.1]oct-8-yl)propionitrile], the IC50 in assay [1] turned out to be 3.35 nM.
As for `Cc1cc(Nc2nc(N[C@@H]3C[C@H]4CCC[C@@H](C3)N4S(=O)(=O)N3CC(C#N)C3)nc3sccc23)n[nH]1` [Embodiment 238], the IC50 came out at 0.71 nM on JAK3 and 1.15 nM in assay [1].
The matching figures for `COc1ccc2c(Nc3cc(C)[nH]n3)nc(N[C@@H]3C[C@H]4CC[C@@H](C3)N4CCC#N)nc2c1` [Embodiment 169, 3-((3-exo)-3-((7-methoxyl-4-((5-methyl-1H-pyrazol-3-yl)amino)quinazolin-2-yl)amino)-8-azabicyclo[3.2.1]oct-8-yl)propionitrile]: 28.8 nM and 9.32 nM.
